Test results from BigSolDB 2.1.

N[C@@H](Cc1ccccc1)C(=O)O
solubility (mole fraction)
Conditions	283.15 K	288.15 K	293.15 K	298.15 K	303.15 K	308.15 K	313.15 K	318.15 K	323.15 K	328.15 K
in 1,4-dioxane	–	1.86e-05	2.37e-05	3.09e-05	3.5e-05	3.9e-05	4.53e-05	5.92e-05	8.28e-05	0.000118
in acetone	8.09e-05	0.000104	0.000131	0.000153	0.000176	0.000226	0.000293	0.00033	0.000375	–
in acetonitrile	7.9e-06	9.3e-06	1.12e-05	1.55e-05	1.8e-05	2.4e-05	3.67e-05	4.72e-05	5.69e-05	–
in ethanol	0.000125	0.000136	0.000151	0.000165	0.000177	0.000191	0.000208	0.000222	0.000231	–
in ethyl acetate	1.33e-05	1.49e-05	1.95e-05	2.06e-05	2.37e-05	3.38e-05	5.38e-05	9.29e-05	0.000194	–
in isobutanol	7.49e-05	7.77e-05	9.15e-05	0.000124	0.000158	0.000187	0.000224	0.000278	0.000323	–
in isopropanol	4.14e-05	5.16e-05	6.41e-05	7.29e-05	9.54e-05	0.00011	0.000122	0.00015	0.000178	–
in methanol	0.000742	0.000807	0.000866	0.000937	0.000996	0.00105	0.00112	0.00119	0.00126	–
in methyl acetate	4.3e-06	8.5e-06	1e-05	1.49e-05	1.93e-05	3.27e-05	4.41e-05	5.46e-05	6.4e-05	–
in n-butanol	5.9e-06	8.4e-06	9.8e-06	2.2e-05	3.48e-05	4.72e-05	5.85e-05	8.5e-05	0.000104	–
in n-propanol	2.83e-05	2.99e-05	3.34e-05	4.63e-05	5.58e-05	6.44e-05	8.96e-05	0.000141	0.000187	–
in water	0.00274	0.00289	0.00307	0.00321	0.00342	0.0036	0.00379	0.00404	0.00433	–
